The source of these data is patent US4978751A, “Low-calorie sweeteners of fructosyl oligosaccharides and the food or dietetic products or drinks containing them” (Roussel-Ulcaf, priority 1988, dated 1990).

Series [1] deals with homogenate of the jejunum of a rat. Put plainly: in vitro. The series is classed as in vitro ADME. As to conditions: 0 min, pH 6. On the procedure: (§1) Then the products are dissolved in a 0.05M sodium phosphate (buffer pH 6.0), so as to have a molar concentration of […]. […] The reaction mixture containing 2 ml of fructosyl oligosaccharide solution and 2 ml of homogenate is incubated for 24 hours at 37° C., under magnetic agitation. Samples are taken at regular intervals, and the intestinal enzymes are thermally inactivated. A parallel test is carried out on a control solution containing saccharose.

Series [2] is described as follows: in vitro. The series is classed as in vitro ADME. As to conditions: rat, jejunum homogenate, pH 6. On the procedure:
as §1

Series [3] relates to alpha amylase of human saliva. In words: Hydrolysis test with alpha amylase of human saliva. The series is classed as in vitro ADME. Conditions: substrate 3 g/liter, pH 7.0, 17.8 units enzyme, 2 hours at 37° C. As to the method: After 2 hours, the reaction is stopped by heating.
The test system of series [4] is homogenate of the jejunum of a rat. In words: in vitro. As to conditions: 0 min, pH 6. On the procedure: (§2) 5 cm of jejunum is removed from a male Sprague Dawley rat (previously put on a diet for 25 hours) and rinsed with a solution of physiological serum.
(§3) The jejunum (weighing about 150 mg) is pulverized in the presence of 0.9% NaCl (w/v) using a "Polytron" type homogenizer then the pulverized product is brought to 10 ml (with 0.9% NaCl solution).
(§4) The reaction mixture containing 2 ml of fructosyl oligosaccharide solution and 2 ml of homogenate is incubated for 24 hours at 37° C., under magnetic agitation.
(§5) In a second series of tests, the evolution of the composition of the fructosyl oligosaccharide is followed over a period of time by inverse plane HPLC (Nucleosil C18 column--eluent: water), the control sugar still being saccharose.

Series [5] is described as follows: in vitro. Conditions: rat, jejunum homogenate, pH 6. On the procedure: as §2, §3, §4, §5
Series [6] deals with alpha amylase from the pancreas of a pig. Put plainly: Hydrolysis test with alpha amylase of the pancreas of a pig. Conditions: substrate 3 g/liter, pH 7.0, 19 units enzyme, 2 hours at 37° C. On the procedure:
The product is then dissolved is a 0.1M sodium phosphate buffer, (pH 7.0), so as to obtain a final concentration of 3 g/liter of fructosyl oligosaccharide. A mixture containing 2 ml of fructosyl oligosaccharide solution (prepared as above in 1.1) and 19 units of alpha amylase from the pancreas of a pig (SIGMA Ref […]) is incubated for 2 hours at 37° C. The reaction is stopped by heating. The glucose which has appeared is measured by the enzymatic method with glucose oxidase/peroxidase (Boehringer test Ref. 124036). A control test is carried out with maltodextrins, type glucidex 21 (Societe Roquette, France). The results are given in micromoles of glucose formed per enzyme unit and per hour.

In series [7] the test system is homogenate of human jejunal mucous. In words: in vitro. The series is classed as in vitro ADME. Conditions: 0 min. As to the method:
(§6) The preparation is identical to that given in Example 2, paragraph 2.1. The jejunal mucous (about 40 mg) is homogenized in the presence of a 0.9% aqueous solution of NaCl (weight/volume) using a "Polytron" type homogenizer. The homogenate is then brought to 12 ml (with the 0.9% solution of NaCl). The reaction mixture containing 2 ml of fructosyl oligosaccharide solution and 2 ml of homogenate is incubated for 24 hours at 37° C. under magnetic agitation. Samples are taken at regular intervals and the intestinal enzymes are thermally inactivated. A parallel test is carried out on a control solution containing saccharose. […] [formula]

Series [8] is described as follows: in vitro. Conditions: human, jejunal mucous homogenate. The series is classed as in vitro ADME. On the procedure: as §6

For `OC[C@H]1O[C@@](CO)(O[C@H]2O[C@H](CO)[C@@H](O[C@@H]3O[C@H](CO)[C@@H](O)[C@H](O)[C@H]3O)[C@H](O)[C@H]2O)[C@@H](O)[C@@H]1O` [Cellobiofructose, cellobiofructose], the “DH % (degree of hydrolysis)” value in series [1] was 0%. Also, in series [2], the metabolised at 8.5 h is 0%, the metabolised at 17.5 h is 3.7% and the metabolised at 24 h turned out to be 5.4%. In series [3], the “Activity of the alpha amylase of human saliva” value was 0 micromoles of glucose formed p. The “Composition in carbohydrate %: Cellobiofructose” value in series [4] came out at 100%. In series [5], this compound gave a share remaining at 8.5 h of 97% and a fraction remaining at 24 h of 93.6%. In series [6], the “Activity of the alpha amylase from the pancreas of a pig” value is recorded as 0 micromoles of glucose formed p. Also, the “DH % (degree of hydrolysis)” value in series [7] was 0%. Also, in series [8], the metabolised at 10 h was determined as 0% and the metabolised at 24 h was 0%.

For the compound `OC[C@H]1O[C@@](CO)(O[C@H]2O[C@H](CO[C@@H]3O[C@H](CO)[C@@H](O)[C@H](O)[C@H]3O)[C@@H](O)[C@H](O)[C@H]2O)[C@@H](O)[C@@H]1O` [Gentiobiofructose, gentiobiofructose], the “DH % (degree of hydrolysis)” value in series [1] was 0%. Also, in series [2], the metabolised at 8.5 h is 0%, the metabolised at 17.5 h was 0.4% and the metabolised at 24 h worked out at 0.4%. Further, the “Activity of the alpha amylase of human saliva” value in series [3] was 0 micromoles of glucose formed p. Also, in series [4], the “Composition in carbohydrate %: Gentiobiofructose” value amounted to 100%. In series [5], the fraction remaining at 8.5 h turned out to be 100% and the share remaining at 24 h was found to be 99.6%. Besides, the “Activity of the alpha amylase from the pancreas of a pig” value in series [6] is on record as 0 micromoles of glucose formed p. Further, the “DH % (degree of hydrolysis)” value in series [7] was found to be 0%. Besides, in series [8], the metabolised at 10 h stood at 0% and the metabolised at 24 h stood at 0%.

For `OC[C@H]1O[C@@](CO)(O[C@H]2O[C@H](CO)[C@@H](O)[C@H](O)[C@H]2O)[C@@H](O)[C@@H]1O` [Saccharose, saccharose, reference compound], the “DH % (degree of hydrolysis)” value in series [1] is given as 0%. Also, in series [2], the metabolised at 8.5 h was 57.6%, the metabolised at 17.5 h is 66.7% and the metabolised at 24 h is 92.7%. The “Composition in carbohydrate %: Saccharose” value in series [4] stood at 100%. For the same compound, the share remaining at 24 h in series [5] is 4%. For the same compound, in series [7], the “DH % (degree of hydrolysis)” value is 0%. In addition, in series [8], the metabolised at 10 h was found to be 57.1% and the metabolised at 24 h came out at 88%.
